Data published in US8519143B2, “Derivatives of (bridged piperazinyl)-1-alkanone and use thereof as p75 inhibitors” (Sanofi, priority 2008, dated 2013).

Assays:
p75^NTR receptor [1] = molecular target: T1, p75^NTR receptor (Homo sapiens, UniProt P08138); assay: p75NTR receptor dimerisation independently of its ligand (soluble p75NTR-alkaline phosphatase binding to SK-N-BE Bep 75 cells); parameters: the whole form of the human p75^NTR receptor; expressed in transfected cells; host or cells: SK-N-BE Bep 75 cells (membrane receptor); HEK293 cells transfected for 48 h (secreted soluble fusion)
T1 sequence (P08138 29-427): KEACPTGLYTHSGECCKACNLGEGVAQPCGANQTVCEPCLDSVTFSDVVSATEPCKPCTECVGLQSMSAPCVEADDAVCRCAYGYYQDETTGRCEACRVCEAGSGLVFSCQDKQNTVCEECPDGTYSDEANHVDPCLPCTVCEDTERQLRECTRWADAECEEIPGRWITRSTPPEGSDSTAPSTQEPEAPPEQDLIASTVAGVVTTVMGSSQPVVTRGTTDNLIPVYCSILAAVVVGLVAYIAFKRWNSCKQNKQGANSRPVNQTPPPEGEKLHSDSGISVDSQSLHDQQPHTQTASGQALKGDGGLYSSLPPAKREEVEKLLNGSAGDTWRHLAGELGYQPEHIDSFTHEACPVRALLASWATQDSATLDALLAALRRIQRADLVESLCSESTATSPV
Method: (§1) The parent strain SK-N-BE (human neuroblastoma) and the clone Bep 75, stably expressing the whole form of the human p75^NTR receptor (SK-N-BE Bep 75), are cultured conventionally in an RPMI culture medium containing FCS (5%), sodium pyruvate (1 mM) and glutamine (4 mM). For the SK-N-BE Bep 75 cells, hygromycin (200 μl/20 ml of medium) is added as selection agent.
Study of p75^NTR receptor dimerisation independently of its ligand The study of p75^NTR receptor dimerisation is carried out on a cell suspension of the SK-N-BE Bep 75 strain. The cells (2.5×10^4 cells/well) are placed in wells (96-well plate) for 24 h, and then preincubated for 1 h at 37° C. in the presence or absence of the compounds according to the invention. Supernatant, derived from culturing HEK293 human cells of renal origin expressing, after transfection for 48 h, and secreting a soluble form of the p75^NTR receptor (extracellular part of the receptor) coupled to an alkaline phosphatase, is then added at the final concentration of 10 nM. The quantification of the specific binding of the soluble p75^NTR receptor to the receptor present on SK-N-BE Bep 75 cells is determined by measuring the enzymatic alkaline phosphatase activity after incubation of the cells for 1 hour at 37° C. in the presence of the supernatant. After filtration and transfer of the filters into 24-well plates, the alkaline phosphatase activity is determined by adding CDP-Star chemiluminescent substrate (ready-to-use, Roche).

[2] = system: human neuroblastoma strains SH-SY-5Y and SK-N-BE Bep 75; assay: Measurement of apoptosis (NGF-induced, cell death detection ELISA); assay type: cell-based; conditions: SH-SY5Y, NGF 10 ng/ml, 48 h (SH-SY-5Y) or 24 h (SK-N-BE Bep 75), cell strain not given, read-out: IC50 of NGF-induced apoptosis inhibition
Method: The SH-SY-5Y strain (human neuroblastoma) is cultured conventionally in a DMEM culture medium (Dulbecco's Modified Eagle's Medium) (Gibco BRL, France) containing FCS (5%) (foetal calf serum) (Boehringer Mannheim, Germany), sodium pyruvate (1 mM) and glutamine (4 mM) in collagen-coated culture flasks (Becton Dickinson, France).
as §1
The cells (human neuroblastoma strains SH-SY-5Y and SK-N-BE Bep 75) are placed in Petri dishes 35 mm in diameter (Biocoat collagen I (10^5 cells/well)) in an appropriate culture medium containing 5% FCS for 24 h. The culture medium is then removed, the cells are rinsed with PBS (Dulbecco's Phosphate buffered saline), and then either fresh medium containing 5% FCS, or medium containing NGF (at the concentration of 10 ng/ml) or beta-amyloid peptide (Aβ1-40) (at the concentration of 10 μM) is added, in the presence or absence of the compounds according to the invention. The degrees of apoptosis are measured 48 hours after the treatments in the case of the SH-SY-5Y strain, and 24 hours after the treatments in the case of the SK-N-BE Bep 75 strain, by quantifying the cytoplasmic histones associated with DNA fragments (cell death detection ELISA, Boehringer Mannheim, Germany). The degrees of apoptosis are expressed as quantity of oligonucleosomes/10^5 cells. Each value corresponds to the mean of 9 experimental points distributed over 3 independent experiments.

p75^NTR receptor [3] = molecular target: T1, p75^NTR receptor; assay: Binding of 125I NGF to the p75NTR receptor on SK-N-BE Bep 75 cell suspension; parameters: the whole form of the human p75^NTR receptor; expressed in transfected cells; host or cells: SK-N-BE (human neuroblastoma), clone Bep 75, hygromycin selection
Method: as §1
Study of the binding of ^125I NGF to the p75^NTR receptor The study of NGF binding (nerve growth factor radiolabelled with iodine-125, Amersham—2000 Ci/mmol) is carried out on a cell suspension of the SK-N-BE Bep 75 strain in accordance with the method described by Weskamp (Neuron, 1991, 6, 649-663). The non-specific binding is determined by measuring the total binding after preincubation for one hour with cells at 37° C. in the presence of non-radiolabelled NGF (1 μM). The specific binding is calculated by the difference between the total binding measurement and the non-specific binding measurement. The competition experiments are carried out using an iodinated NGF (^125I NGF) concentration of 0.3 nM.

Structure (SMILES)	IC50 (p75^NTR receptor [1])	IC50 [2]	IC50 (p75^NTR receptor [3])
COC(=O)c1cccc(C2=CCCN(C(=O)CN3CC4CCC(C3)N4c3ncc(F)cn3)C2)c1 [Compound No. 53, 3-(1-{2-[8-(5-fluoropyrimidin-2-yl)-3,8-diazabicyclo[3.2.1]oct-3-yl]acetyl}-1,2,5,6-tetrahydropyridin-3-yl)benzoic acid methyl ester]	2.08 nM		
O=C(O)c1ccc(N2C3CCC2CN(CC(=O)N2CC=C(c4ccc(Cl)c(C(F)(F)F)c4)CC2)C3)nc1 [Compound No. 29, 6-(3-{2-[4-(4-chloro-3-trifluoromethylphenyl)-3,6-dihydro-2H-pyridin-1-yl]-2-oxoethyl}-3,8-diazabicyclo[3.2.1]oct-8-yl)nicotinic acid]	0.14 nM	0.22 nM	
O=C(CN1CC2CCC(C1)N2c1ncccn1)N1CC=C(c2ccc(Cl)cc2)CC1 [Compound No. 2, 1-[4-(4-chlorophenyl)-3,6,-dihydro-2H-pyridin-1-yl]-2-(8-pyrimidin-2-yl-3,8-diazabicyclo[3.2.1]oct-3-yl)ethanone]			0.18 nM
O=C(CN1CC2CCC(C1)N2c1ccc(C(F)(F)F)cn1)N1CC=C(c2ccc(Cl)c(C(F)(F)F)c2)CC1 [Compound No. 8, 1-[4-(4-chloro-3-trifluoromethylphenyl)-3,6-dihydro-2H-pyridin-1-yl]-2-[8-(5-trifluoromethylpyridin-2-yl)-3,8-diazabicyclo[3.2.1]oct-3-yl]ethanone]	0.68 nM	2.24 nM	
COC(=O)c1ccc(N2C3CCC2CN(CC(=O)N2CC=C(c4ccc(Cl)c(C(F)(F)F)c4)CC2)C3)nc1 [Compound No. 28, 6-(3-{2-[4-(4-chloro-3-trifluoromethylphenyl)-3,6-dihydro-2H-pyridin-1-yl]-2-oxoethyl}-3,8-diazabicyclo[3.2.1]oct-8-yl)nicotinic acid methyl ester]	9.84 nM		
O=C(CN1CC2CCC(C1)N2c1ccc(C(F)(F)F)cn1)N1CC=C(c2cccc(C(F)(F)F)c2)CC1 [Compound No. 1, 1-[4-(3-trifluoromethylphenyl)-3,6-dihydro-2H-pyridin-1-yl]-2-[8-(5-trifluoromethylpyridin-2-yl)-3,8-diazabicyclo[3.2.1]oct-3-yl]ethanone]	23.4 nM	1.33 nM	1.35 nM
O=C(CN1CC2CCC(C1)N2c1cccnc1)N1CC=C(c2ccc(Cl)c(C(F)(F)F)c2)CC1 [Compound No. 27, 1-[4-(4-chloro-3-trifluoromethylphenyl)-3,6-dihydro-2H-pyridin-1-yl]-2-(8-pyridin-3-yl-3,8-diazabicyclo[3.2.1]oct-3-yl)ethanone]	0.23 nM	0.088 nM	
O=C(CN1CC2CCC(C1)N2c1ccc(C(F)(F)F)cn1)N1CC=C(c2ccc(Cl)cc2)CC1 [Compound No. 7, 1-[4-(4-chlorophenyl)-3,6-dihydro-2H-pyridin-1-yl]-2-[8-(5-trifluoromethylpyridin-2-yl)-3,8-diazabicyclo[3.2.1]oct-3-yl]ethanone]			0.29 nM
O=C(CN1C2CCC1CN(c1cnccn1)C2)N1CC=C(c2cccc(C(F)(F)F)c2)CC1 [Compound No. 3, 2-(3-pyrazin-2-yl-3,8-diazabicyclo[3.2.1]oct-8-yl)-1-[4-(3-trifluoromethylphenyl)-3,6-dihyro-2H-pyridin-1-yl]ethanone]	0.05 nM	0.067 nM	
O=C(CN1CC2CCC(C1)N2c1ncc(F)cn1)N1CC=C(c2ccc(Cl)c(C(F)(F)F)c2)CC1 [Compound No. 11, 1-[4-(4-chloro-3-trifluoromethylphenyl)-3,6-dihydro-2H-pyridin-1-yl]-2-[8-(5-fluoropyrimidin-2-yl)-3,8-diazabicyclo[3.2.1]oct-3-yl]ethanone]	0.2 nM	0.21 nM	0.98 nM
